# According to ChEMBL document CHEMBL5465560, “Selectivity Literature for EUbOPEN Chemogenomic Library” (2024):
# Tests used:
# [1] = target: Serine/threonine-protein kinase NIM1 (Homo sapiens, UniProt Q8IY84); experiment: Selectivity interaction (KinomeScan (DiscoverX)) EUB0000229b NIM1K; conditions: at 10 µM
# [2] = target: Mitogen-activated protein kinase 14 (Homo sapiens, UniProt Q16539); experiment: Selectivity interaction (KinomeScan (DiscoverX)) EUB0001079a MAPK14; conditions: at 1 µM
# [3] = target: Calcium/calmodulin-dependent protein kinase type 1B (Homo sapiens) (UniProt Q6P2M8); experiment: Selectivity interaction (KinomeScan (DiscoverX)) EUB0001079a PNCK; conditions: at 1 µM
# [4] = target: Myosin light chain kinase, smooth muscle (Homo sapiens, UniProt Q15746); experiment: Selectivity interaction (Kinase panel (Invitrogen)) EUB0000639a MYLK; conditions: at 200 nM
# [5] = target: T1, Serine/threonine-protein kinase TAO3 (Homo sapiens) (UniProt Q9H2K8); experiment: Selectivity interaction (Kinase panel (Invitrogen)) EUB0000639a TAOK3; conditions: at 200 nM
# T1 sequence (whole entry): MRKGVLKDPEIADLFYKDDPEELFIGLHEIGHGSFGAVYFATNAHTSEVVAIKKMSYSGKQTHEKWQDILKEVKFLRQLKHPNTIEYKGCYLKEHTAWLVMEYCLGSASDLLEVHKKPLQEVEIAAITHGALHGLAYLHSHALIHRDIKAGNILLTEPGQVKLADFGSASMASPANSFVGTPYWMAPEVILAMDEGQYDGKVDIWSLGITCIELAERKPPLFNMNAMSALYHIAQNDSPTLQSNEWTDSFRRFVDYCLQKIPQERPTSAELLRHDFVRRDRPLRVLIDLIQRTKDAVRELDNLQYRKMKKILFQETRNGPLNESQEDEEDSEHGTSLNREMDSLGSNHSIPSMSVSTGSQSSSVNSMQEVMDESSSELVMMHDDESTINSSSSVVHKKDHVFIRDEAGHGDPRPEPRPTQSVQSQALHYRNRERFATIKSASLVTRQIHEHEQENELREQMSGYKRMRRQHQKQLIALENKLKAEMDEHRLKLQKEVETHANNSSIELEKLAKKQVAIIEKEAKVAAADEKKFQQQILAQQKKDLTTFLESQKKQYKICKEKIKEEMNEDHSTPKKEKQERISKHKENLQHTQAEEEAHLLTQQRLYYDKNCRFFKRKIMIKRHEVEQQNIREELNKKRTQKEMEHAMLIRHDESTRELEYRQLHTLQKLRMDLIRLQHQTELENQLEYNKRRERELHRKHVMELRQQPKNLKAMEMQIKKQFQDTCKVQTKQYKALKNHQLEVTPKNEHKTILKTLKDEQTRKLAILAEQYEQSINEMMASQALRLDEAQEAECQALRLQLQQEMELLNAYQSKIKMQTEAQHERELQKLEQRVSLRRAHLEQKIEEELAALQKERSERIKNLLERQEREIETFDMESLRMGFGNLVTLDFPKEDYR
# [6] = target: T2, Serine/threonine-protein kinase 3 (Homo sapiens) (UniProt Q13188); experiment: Selectivity interaction (KinomeScan (DiscoverX)) EUB0001619a STK3; conditions: at 1 µM
# T2 sequence (whole entry): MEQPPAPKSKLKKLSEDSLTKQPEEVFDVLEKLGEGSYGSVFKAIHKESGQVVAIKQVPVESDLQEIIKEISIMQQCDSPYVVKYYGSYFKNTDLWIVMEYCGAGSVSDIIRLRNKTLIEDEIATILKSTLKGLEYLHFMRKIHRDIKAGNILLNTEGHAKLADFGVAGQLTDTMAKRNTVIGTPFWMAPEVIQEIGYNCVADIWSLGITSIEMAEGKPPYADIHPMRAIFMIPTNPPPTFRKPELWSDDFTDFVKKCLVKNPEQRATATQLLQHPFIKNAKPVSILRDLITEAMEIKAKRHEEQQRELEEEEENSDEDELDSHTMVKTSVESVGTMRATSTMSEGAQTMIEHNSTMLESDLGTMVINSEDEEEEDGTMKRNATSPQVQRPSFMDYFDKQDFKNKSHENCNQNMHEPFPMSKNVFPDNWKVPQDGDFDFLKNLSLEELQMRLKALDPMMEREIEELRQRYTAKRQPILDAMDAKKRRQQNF
# [7] = target: Tyrosine-protein kinase Lck (Homo sapiens, UniProt P06239); experiment: Selectivity interaction (Panel of kinases, GPCRs, ion channels and transporters (enzymatic assay)) EUB0000266bCl LCK
# [8] = target: T3, Tyrosine-protein kinase ITK/TSK (Homo sapiens) (UniProt Q08881); experiment: Selectivity interaction (ProQinase) EUB0000171b ITK
# T3 sequence (whole entry): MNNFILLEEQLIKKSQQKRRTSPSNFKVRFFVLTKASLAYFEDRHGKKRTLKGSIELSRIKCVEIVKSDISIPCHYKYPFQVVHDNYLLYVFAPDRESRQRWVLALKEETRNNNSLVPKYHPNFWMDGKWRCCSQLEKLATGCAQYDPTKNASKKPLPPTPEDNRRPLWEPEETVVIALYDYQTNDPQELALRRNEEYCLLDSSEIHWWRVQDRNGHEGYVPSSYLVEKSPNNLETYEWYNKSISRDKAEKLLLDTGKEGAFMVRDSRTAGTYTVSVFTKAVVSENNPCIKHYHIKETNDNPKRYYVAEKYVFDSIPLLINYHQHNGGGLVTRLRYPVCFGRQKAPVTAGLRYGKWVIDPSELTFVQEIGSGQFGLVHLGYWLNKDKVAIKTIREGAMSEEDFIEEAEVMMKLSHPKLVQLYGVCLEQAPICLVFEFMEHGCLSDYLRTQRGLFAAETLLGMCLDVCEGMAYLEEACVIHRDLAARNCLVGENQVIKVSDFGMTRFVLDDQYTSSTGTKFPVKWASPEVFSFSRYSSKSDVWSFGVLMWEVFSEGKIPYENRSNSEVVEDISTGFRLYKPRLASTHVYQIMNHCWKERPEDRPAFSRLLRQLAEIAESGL
# Sequence of Calcium/calmodulin-dependent protein kinase type 1B (Homo sapiens) (Q6P2M8 whole entry): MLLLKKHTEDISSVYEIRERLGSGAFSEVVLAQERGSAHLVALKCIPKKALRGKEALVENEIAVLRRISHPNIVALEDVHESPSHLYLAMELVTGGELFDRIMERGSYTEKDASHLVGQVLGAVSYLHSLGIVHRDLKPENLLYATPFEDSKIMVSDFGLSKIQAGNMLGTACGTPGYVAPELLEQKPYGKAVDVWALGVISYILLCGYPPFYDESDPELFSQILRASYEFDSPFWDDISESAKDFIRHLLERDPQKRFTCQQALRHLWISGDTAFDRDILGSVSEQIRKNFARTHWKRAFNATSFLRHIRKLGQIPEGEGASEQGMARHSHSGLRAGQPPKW
# Sequence of Serine/threonine-protein kinase NIM1 (Q8IY84 whole entry): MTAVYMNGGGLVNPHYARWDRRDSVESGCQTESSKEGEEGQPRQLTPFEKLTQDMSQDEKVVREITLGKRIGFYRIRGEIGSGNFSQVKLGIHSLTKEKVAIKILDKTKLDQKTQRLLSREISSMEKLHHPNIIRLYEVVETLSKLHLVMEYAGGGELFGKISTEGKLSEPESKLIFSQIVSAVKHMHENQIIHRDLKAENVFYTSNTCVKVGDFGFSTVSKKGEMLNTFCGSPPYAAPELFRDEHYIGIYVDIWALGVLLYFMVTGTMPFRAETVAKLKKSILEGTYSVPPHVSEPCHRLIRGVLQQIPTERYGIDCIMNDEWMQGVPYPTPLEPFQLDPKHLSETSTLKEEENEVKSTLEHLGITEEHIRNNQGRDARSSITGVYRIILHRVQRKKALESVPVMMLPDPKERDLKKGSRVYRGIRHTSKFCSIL
# Sequence of Tyrosine-protein kinase Lck (P06239 2-509 limits assumed): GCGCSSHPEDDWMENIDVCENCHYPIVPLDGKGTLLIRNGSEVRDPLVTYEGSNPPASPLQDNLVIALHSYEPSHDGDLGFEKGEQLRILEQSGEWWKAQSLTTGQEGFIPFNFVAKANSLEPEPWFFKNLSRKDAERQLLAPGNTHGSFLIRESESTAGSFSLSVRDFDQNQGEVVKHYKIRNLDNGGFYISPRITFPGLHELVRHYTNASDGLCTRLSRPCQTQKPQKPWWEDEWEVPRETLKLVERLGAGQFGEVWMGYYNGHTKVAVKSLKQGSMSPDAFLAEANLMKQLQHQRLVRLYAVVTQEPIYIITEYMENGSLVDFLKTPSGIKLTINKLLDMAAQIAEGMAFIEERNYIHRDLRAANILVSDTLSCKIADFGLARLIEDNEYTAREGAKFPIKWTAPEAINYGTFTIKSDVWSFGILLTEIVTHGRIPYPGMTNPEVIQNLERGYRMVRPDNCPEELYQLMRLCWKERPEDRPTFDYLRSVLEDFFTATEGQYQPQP
# Sequence of Myosin light chain kinase, smooth muscle (Q15746 whole entry): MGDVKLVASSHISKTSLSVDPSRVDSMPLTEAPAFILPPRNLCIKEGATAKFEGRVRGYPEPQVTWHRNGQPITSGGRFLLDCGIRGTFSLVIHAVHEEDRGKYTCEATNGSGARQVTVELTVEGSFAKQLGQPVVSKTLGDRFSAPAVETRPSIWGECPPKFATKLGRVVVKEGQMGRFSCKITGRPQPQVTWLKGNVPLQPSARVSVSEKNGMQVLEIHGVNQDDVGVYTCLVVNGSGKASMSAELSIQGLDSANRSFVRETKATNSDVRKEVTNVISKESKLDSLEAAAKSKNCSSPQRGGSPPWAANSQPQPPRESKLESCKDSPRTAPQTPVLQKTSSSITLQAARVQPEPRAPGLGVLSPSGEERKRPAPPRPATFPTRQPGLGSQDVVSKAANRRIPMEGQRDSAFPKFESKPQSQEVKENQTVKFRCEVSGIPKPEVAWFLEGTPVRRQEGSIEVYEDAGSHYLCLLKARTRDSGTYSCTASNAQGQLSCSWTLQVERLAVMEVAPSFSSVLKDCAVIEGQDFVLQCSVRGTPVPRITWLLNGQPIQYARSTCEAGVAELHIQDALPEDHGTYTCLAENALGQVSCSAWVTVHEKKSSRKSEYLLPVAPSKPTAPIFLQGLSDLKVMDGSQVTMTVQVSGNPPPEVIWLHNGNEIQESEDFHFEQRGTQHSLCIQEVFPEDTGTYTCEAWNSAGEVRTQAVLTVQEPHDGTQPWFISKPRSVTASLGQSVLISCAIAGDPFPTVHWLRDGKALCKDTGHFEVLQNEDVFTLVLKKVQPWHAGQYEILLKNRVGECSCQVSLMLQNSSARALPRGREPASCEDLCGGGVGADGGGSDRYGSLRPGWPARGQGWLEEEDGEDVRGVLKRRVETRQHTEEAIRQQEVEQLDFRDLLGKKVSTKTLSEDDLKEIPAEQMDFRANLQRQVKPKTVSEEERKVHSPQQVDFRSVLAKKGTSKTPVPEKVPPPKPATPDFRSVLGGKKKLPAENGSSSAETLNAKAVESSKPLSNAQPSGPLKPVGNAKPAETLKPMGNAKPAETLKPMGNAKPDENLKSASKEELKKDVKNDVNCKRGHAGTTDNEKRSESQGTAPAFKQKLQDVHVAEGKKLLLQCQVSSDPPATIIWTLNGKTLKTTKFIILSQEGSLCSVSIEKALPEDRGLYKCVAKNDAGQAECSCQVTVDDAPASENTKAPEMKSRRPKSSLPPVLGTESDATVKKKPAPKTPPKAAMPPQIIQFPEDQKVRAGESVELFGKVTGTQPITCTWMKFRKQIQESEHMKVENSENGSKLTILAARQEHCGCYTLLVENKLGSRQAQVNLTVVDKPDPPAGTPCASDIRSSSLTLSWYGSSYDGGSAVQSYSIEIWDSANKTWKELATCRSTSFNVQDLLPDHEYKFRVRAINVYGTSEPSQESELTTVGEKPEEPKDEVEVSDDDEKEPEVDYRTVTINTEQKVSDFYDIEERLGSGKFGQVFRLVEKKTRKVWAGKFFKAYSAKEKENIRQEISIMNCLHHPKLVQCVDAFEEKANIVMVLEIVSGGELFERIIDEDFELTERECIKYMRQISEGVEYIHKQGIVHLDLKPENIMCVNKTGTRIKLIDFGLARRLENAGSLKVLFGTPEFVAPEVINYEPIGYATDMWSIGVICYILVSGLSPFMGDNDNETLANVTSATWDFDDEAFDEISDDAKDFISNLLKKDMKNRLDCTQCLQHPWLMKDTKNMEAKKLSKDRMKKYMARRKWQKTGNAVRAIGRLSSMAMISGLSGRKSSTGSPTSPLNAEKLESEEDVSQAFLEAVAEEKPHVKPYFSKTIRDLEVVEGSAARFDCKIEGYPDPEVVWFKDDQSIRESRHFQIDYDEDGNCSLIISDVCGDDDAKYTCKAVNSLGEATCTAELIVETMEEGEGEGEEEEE
# Sequence of Mitogen-activated protein kinase 14 (Q16539 whole entry): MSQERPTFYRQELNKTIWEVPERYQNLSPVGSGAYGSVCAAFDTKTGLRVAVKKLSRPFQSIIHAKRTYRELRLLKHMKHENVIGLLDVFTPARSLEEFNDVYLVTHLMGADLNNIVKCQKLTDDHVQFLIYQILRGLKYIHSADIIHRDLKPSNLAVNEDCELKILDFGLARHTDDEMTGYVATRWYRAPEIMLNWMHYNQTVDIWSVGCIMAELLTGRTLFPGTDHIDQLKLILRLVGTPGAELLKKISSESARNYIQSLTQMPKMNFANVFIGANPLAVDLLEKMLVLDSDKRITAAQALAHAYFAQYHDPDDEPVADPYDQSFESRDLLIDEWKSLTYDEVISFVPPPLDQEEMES
smiles,measurement,setting,value
COc1cc(N(C)c2ccnc3ccc(C(F)(F)F)cc23)cc(OC)c1OC,% binding,[1],100%
Nc1cnc(N2CCc3cc(S(=O)(=O)Nc4c(F)cc(Cl)cc4F)cc(N4CCCC4=O)c32)nc1 [TP-020n],% of control,[2],100%
same,% of control,[3],67%
CC[C@@H]1[C@H](F)C(=O)N[C@@H]1COc1nccc2cc(C(N)=O)c(OC)cc12 [ZIMLOVISERTIB],% of inhibition,[4],8.89%
same,% of inhibition,[5],-1.02%
N#Cc1cccc(-c2c[nH]c3ncnc(N4CCOCC4)c23)c1,% of control,[6],1.8%
CCn1c(-c2nc3cc(C(=O)N4CCCC(N)C4)ccc3n2C)cc2ccccc21 (centres undefined),pXC50,[7],< 4.5 M
C=CC(=O)Nc1cccc(C(=O)Nc2ccc(Nc3cc(-c4[nH]c(SC)nc4C)ccn3)cc2)c1,% of control,[8]; at 1 µM,95%
same,% of control,[8]; at 5 µM,81%
